Measurements from ChEMBL document CHEMBL1201862, “PubChem BioAssay data set” (2004).
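Interpolation was linear, between the two tested concentrations surrounding the appropriate level; five concentrations were tested over 48 hours in 96-well plates. At the GI50, growth is halved.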 The source made the active and inactive calls. No stated cut-off is given here; in the data, active = GI50 up to about 1.1 µM and inactive = higher.

Legend:
Assay in all cases: NCI tumour cell line growth inhibition, 48 h
786-0 = tested on: 786-0
COLO 205 = tested on: COLO 205
HCT-116 = tested on: HCT-116
HL-60 = tested on: HL-60
KM12 = tested on: KM12
LOX IMVI = tested on: LOX IMVI
MCF7 = tested on: MCF7
MDA-MB-231 = tested on: MDA-MB-231
MDA-N = tested on: MDA-N
NCI-H23 = tested on: NCI-H23
NCI/ADR-RES = tested on: NCI/ADR-RES
OVCAR-8 = tested on: OVCAR-8
SF-268 = tested on: SF-268
SF-539 = tested on: SF-539
SK-MEL-2 = tested on: SK-MEL-2
T47D = tested on: T47D
U-251 = tested on: U-251
A498 = tested on: A498
HOP-92 = tested on: HOP-92

Row | Structure (SMILES) | GI50 (786-0) | GI50 (COLO 205) | GI50 (HCT-116) | GI50 (HL-60) | GI50 (KM12) | GI50 (LOX IMVI) | GI50 (MCF7) | GI50 (MDA-MB-231) | GI50 (MDA-N) | GI50 (NCI-H23) | GI50 (NCI/ADR-RES) | GI50 (OVCAR-8) | GI50 (SF-268) | GI50 (SF-539) | GI50 (SK-MEL-2) | GI50 (T47D) | GI50 (U-251) | GI50 (A498) | GI50 (HOP-92)
1 | COc1ccc(OC)c(C(=O)c2cccc(C(=O)c3cc(OC)ccc3OC)n2)c1 | 68.9 µM (inactive) | 32.1 µM (inactive) | 43.9 µM (inactive) | 18.5 µM (inactive) | 33.9 µM (inactive) | 25.5 µM (inactive) | 26.5 µM (inactive) | 58.7 µM (inactive) | 17 µM (inactive) | 20 µM (inactive) | 29 µM (inactive) | 50.1 µM (inactive) | 63.4 µM (inactive) | 28.6 µM (inactive) | 23 µM (inactive) | 29.6 µM (inactive) | 27.4 µM (inactive) | – | –
2 | CCCCC(=O)Nc1ccc2cc(C(=O)OC)c(=O)[nH]c2n1 | > 100 µM (inactive) | > 100 µM (inactive) | > 100 µM (inactive) | – | > 100 µM (inactive) | > 100 µM (inactive) | > 100 µM (inactive) | > 100 µM (inactive) | > 100 µM (inactive) | > 100 µM (inactive) | > 100 µM (inactive) | > 100 µM (inactive) | > 100 µM (inactive) | > 100 µM (inactive) | > 100 µM (inactive) | > 100 µM (inactive) | > 100 µM (inactive) | > 100 µM (inactive) | > 100 µM (inactive)
3 | CCOC(=O)C1=CNC(C(=O)OCC)C1c1cccn1-c1ccccc1 (centres undefined) | 32.5 µM (inactive) | 23.5 µM (inactive) | 23.6 µM (inactive) | – | 30.8 µM (inactive) | 16.6 µM (inactive) | 31.9 µM (inactive) | 12.5 µM (inactive) | 20 µM (inactive) | 37.7 µM (inactive) | 22.8 µM (inactive) | 28.8 µM (inactive) | 31.3 µM (inactive) | 20.4 µM (inactive) | 12.1 µM (inactive) | 25.8 µM (inactive) | 29.6 µM (inactive) | 37 µM (inactive) | 16.3 µM (inactive)
4 | CNCCN[C@@H]1c2cc3c(cc2[C@@H](c2cc(OC)c(O)c(OC)c2)[C@H]2C(=O)OC[C@@H]21)OCO3 | 0.144 µM (active) | 1.23 µM (inactive) | 0.432 µM (active) | < 0.016 µM (active) | 0.406 µM (active) | 0.153 µM (active) | 0.0296 µM (active) | 0.37 µM (active) | 1.04 µM (active) | 0.185 µM (active) | 68.2 µM (inactive) | 0.252 µM (active) | 0.258 µM (active) | 0.0678 µM (active) | 0.44 µM (active) | 0.138 µM (active) | 0.125 µM (active) | – | –
5 | NC(Cc1ncccn1)C(=O)O (centres undefined) | > 100 µM (inactive) | > 100 µM (inactive) | > 100 µM (inactive) | – | > 100 µM (inactive) | > 100 µM (inactive) | > 100 µM (inactive) | > 100 µM (inactive) | > 100 µM (inactive) | > 100 µM (inactive) | > 100 µM (inactive) | > 100 µM (inactive) | > 100 µM (inactive) | > 100 µM (inactive) | > 100 µM (inactive) | > 100 µM (inactive) | > 100 µM (inactive) | > 100 µM (inactive) | > 100 µM (inactive)
6 | COc1cc(OC)c(NC2=NCCO2)cc1Cl | 30.1 µM (inactive) | 18.8 µM (inactive) | 34.4 µM (inactive) | 43.3 µM (inactive) | 16.7 µM (inactive) | 31.4 µM (inactive) | 49.1 µM (inactive) | 26.1 µM (inactive) | 17.1 µM (inactive) | 22.2 µM (inactive) | 32.4 µM (inactive) | 83 µM (inactive) | 39.7 µM (inactive) | 25.5 µM (inactive) | 17.3 µM (inactive) | 54.5 µM (inactive) | 39.7 µM (inactive) | 32.7 µM (inactive) | –
7 | Cc1cc(C)c(S(=O)(=O)N(CCCN)OCCCN)c(C)c1 | – | > 100 µM (inactive) | > 100 µM (inactive) | – | > 100 µM (inactive) | > 100 µM (inactive) | > 100 µM (inactive) | > 100 µM (inactive) | > 100 µM (inactive) | > 100 µM (inactive) | > 100 µM (inactive) | > 100 µM (inactive) | > 100 µM (inactive) | > 100 µM (inactive) | > 100 µM (inactive) | > 100 µM (inactive) | > 100 µM (inactive) | – | 64.1 µM (inactive)
8 | CCC(=O)NCCc1c2c3c(ccnc3c3ncsc13)-c1ccccc1N2 [KUANONIAMINE C] | 0.791 µM (active) | 1.45 µM (inactive) | 0.582 µM (active) | 0.845 µM (active) | 2.33 µM (inactive) | 1.05 µM (active) | 0.0223 µM (active) | 4.02 µM (inactive) | 0.324 µM (active) | 1.92 µM (inactive) | 4.99 µM (inactive) | 3.28 µM (inactive) | 1.45 µM (inactive) | 1.06 µM (active) | 43.2 µM (inactive) | 6.75 µM (inactive) | 1.41 µM (inactive) | 0.989 µM (active) | –
9 | CCSc1cc(C(=O)OC)c2n(c1=O)CCCC2 | > 100 µM (inactive) | > 100 µM (inactive) | > 100 µM (inactive) | > 100 µM (inactive) | > 100 µM (inactive) | > 100 µM (inactive) | > 100 µM (inactive) | > 100 µM (inactive) | > 100 µM (inactive) | > 100 µM (inactive) | > 100 µM (inactive) | > 100 µM (inactive) | > 100 µM (inactive) | > 100 µM (inactive) | > 100 µM (inactive) | > 100 µM (inactive) | > 100 µM (inactive) | > 100 µM (inactive) | –
10 | CC(=O)c1c(SCCN2CCCCCC2)n(-c2ccccc2)c(=S)n(-c2ccccc2)c1=O | 1.73 µM (inactive) | 2.03 µM (inactive) | 6.81 µM (inactive) | 0.019 µM (active) | 18.6 µM (inactive) | 3.16 µM (inactive) | – | 14.4 µM (inactive) | 7.29 µM (inactive) | 17.3 µM (inactive) | 34.5 µM (inactive) | 10.7 µM (inactive) | 11 µM (inactive) | 6 µM (inactive) | 19.4 µM (inactive) | 2.31 µM (inactive) | 15.9 µM (inactive) | 13.4 µM (inactive) | 6.53 µM (inactive)
11 | Cc1cc(N(C)C)ccc1/N=N/c1ccc2ncccc2c1 | > 100 µM (inactive) | 33.9 µM (inactive) | 59.7 µM (inactive) | 19.9 µM (inactive) | 66.7 µM (inactive) | – | 20.3 µM (inactive) | 84.1 µM (inactive) | > 100 µM (inactive) | 59.3 µM (inactive) | > 100 µM (inactive) | > 100 µM (inactive) | > 100 µM (inactive) | > 100 µM (inactive) | > 100 µM (inactive) | 16.9 µM (inactive) | > 100 µM (inactive) | – | > 100 µM (inactive)
12 | N#C/C(=C\c1ccc(F)cc1)c1nc(-c2cc3ccccc3oc2=O)cs1 | 14.8 µM (inactive) | > 100 µM (inactive) | 35.2 µM (inactive) | > 100 µM (inactive) | 59 µM (inactive) | 87.7 µM (inactive) | 37.8 µM (inactive) | 12.7 µM (inactive) | 76.2 µM (inactive) | – | 30.9 µM (inactive) | 21.3 µM (inactive) | 16.5 µM (inactive) | 18 µM (inactive) | 30.3 µM (inactive) | 24.2 µM (inactive) | 14.6 µM (inactive) | – | 10.3 µM (inactive)
13 | CCC(=O)NC(Nc1ccccc1F)(C(F)(F)F)C(F)(F)F | – | > 100 µM (inactive) | > 100 µM (inactive) | > 100 µM (inactive) | > 100 µM (inactive) | > 100 µM (inactive) | > 100 µM (inactive) | > 100 µM (inactive) | > 100 µM (inactive) | > 100 µM (inactive) | > 100 µM (inactive) | > 100 µM (inactive) | > 100 µM (inactive) | > 100 µM (inactive) | > 100 µM (inactive) | 40.9 µM (inactive) | > 100 µM (inactive) | – | > 100 µM (inactive)
14 | COc1ccc(/C(C)=N/NC(=S)N(C)C)c(O)c1 | – | 2.59 µM (inactive) | 6.95 µM (inactive) | – | 4.92 µM (inactive) | 2.42 µM (inactive) | – | 5.96 µM (inactive) | 16 µM (inactive) | 8.11 µM (inactive) | – | – | 12 µM (inactive) | – | 14.4 µM (inactive) | 7.48 µM (inactive) | 7.83 µM (inactive) | – | 29.5 µM (inactive)
15 | Nc1ncnc2c1ncn2C1OC(CO)C(O)C1N (centres undefined) | > 100 µM (inactive) | > 100 µM (inactive) | > 100 µM (inactive) | > 100 µM (inactive) | > 100 µM (inactive) | > 100 µM (inactive) | – | > 100 µM (inactive) | > 100 µM (inactive) | > 100 µM (inactive) | > 100 µM (inactive) | > 100 µM (inactive) | > 100 µM (inactive) | > 100 µM (inactive) | > 100 µM (inactive) | > 100 µM (inactive) | > 100 µM (inactive) | > 100 µM (inactive) | > 100 µM (inactive)
16 | CCN(CC)CCNc1ccc2nnn3c4ccc(OC(C)=O)cc4c(=O)c1c23 | – | 2.45 µM (inactive) | 3.46 µM (inactive) | – | 3.15 µM (inactive) | 1.47 µM (inactive) | 2.16 µM (inactive) | 2.65 µM (inactive) | 4.61 µM (inactive) | 3.77 µM (inactive) | 4.45 µM (inactive) | 1.15 µM (inactive) | 3.01 µM (inactive) | 1.67 µM (inactive) | 14.8 µM (inactive) | 15.8 µM (inactive) | 2.22 µM (inactive) | 6.76 µM (inactive) | 3.9 µM (inactive)
